In ChEMBL document CHEMBL4334464, “From Phenylthiazoles to Phenylpyrazoles: Broadening the Antibacterial Spectrum toward Carbapenem-Resistant Bacteria” (J Med Chem, 2019):
≈ marks a conversion by molar mass, not a printed value. Calls of active or inactive are those of the source. The rule behind the calls is not given here.

Tests used:
[1] = tested on: Staphylococcus epidermidis; experiment: Ratio of MBC to MIC for Staphylococcus epidermidis NRS101 clinical isolates; type: functional
[2] = tested on: Streptococcus pneumoniae; experiment: Ratio of MBC to MIC for cephalosporin-resistant Streptococcus pneumoniae ATCC 51916 clinical isolates; type: functional
[3] = tested on: Escherichia coli; experiment: Ratio of MBC to MIC for Escherichia coli ATCC 25922 clinical isolates; type: functional
[4] = tested on: Staphylococcus aureus; experiment: Antibacterial activity against Methicillin-sensitive Staphylococcus aureus ATCC 6538 clinical isolates after 18 to 20 hrs in aerobic condition by CLSI protocol based broth microdilution assay; type: functional
[5] = tested on: Salmonella enterica; experiment: Ratio of MBC to MIC for Salmonella enterica NR-170 clinical isolates; type: functional
[6] = tested on: Staphylococcus aureus; experiment: Antibacterial activity against Methicillin-resistant Staphylococcus aureus USA700-NRS386 clinical isolates after 18 to 20 hrs in aerobic condition by CLSI protocol based broth microdilution assay; type: functional
[7] = tested on: Pseudomonas aeruginosa; experiment: microbe, parasite or virus in culture; settings: ATCC 9027
Description: Antibacterial activity against Pseudomonas aeruginosa ATCC 9027 clinical isolates after 18 to 20 hrs in aerobic condition by CLSI-based broth microdilution assay

[8] = tested on: Escherichia coli; experiment: Antibacterial activity against Escherichia coli ATCC 25922 clinical isolates after 18 to 20 hrs in aerobic condition by CLSI-based broth microdilution assay; type: functional
[9] = tested on: Klebsiella pneumoniae; experiment: Ratio of MBC to MIC for Klebsiella pneumoniae BAA-1144 clinical isolates; type: functional
[10] = tested on: Salmonella typhimurium; experiment: Antibacterial activity against Salmonella typhimurium ATCC 700720 after 18 to 20 hrs in aerobic condition by CLSI-based broth microdilution assay; type: functional, Salmonella enterica subsp. enterica serovar Typhimurium; settings: Salmonella enterica
[11] = tested on: Escherichia coli; experiment: Antibacterial activity against Escherichia coli ATCC 35150 clinical isolates after 18 to 20 hrs in aerobic condition by CLSI-based broth microdilution assay; type: functional
[12] = tested on: Staphylococcus epidermidis; experiment: Antibacterial activity against Staphylococcus epidermidis NRS101 after 18 to 20 hrs in aerobic condition by CLSI-based broth microdilution assay; type: functional
[13] = tested on: Staphylococcus aureus; experiment: Antibacterial activity against Methicillin-resistant Staphylococcus aureus NRS385-USA500 clinical isolates after 18 to 20 hrs in aerobic condition by CLSI protocol based broth microdilution assay; type: functional
[14] = tested on: Acinetobacter baumannii; experiment: Antibacterial activity against Acinetobacter baumannii ATCC 19606 clinical isolates after 18 to 20 hrs in aerobic condition by CLSI-based broth microdilution assay; type: functional; settings: ATCC 19606 = CIP 70.34 = JCM 6841
[15] = tested on: Listeria monocytogenes; experiment: Ratio of MBC to MIC for Listeria monocytogenes ATCC 19111 clinical isolates; type: functional
[16] = tested on: Acinetobacter baumannii; experiment: Antibacterial activity against carbapenem-resistant Acinetobacter baumannii ATCC BAA 1605 clinical isolates after 18 to 20 hrs in aerobic condition by CLSI-based broth microdilution assay; type: functional
[17] = tested on: Salmonella enterica; experiment: Antibacterial activity against Salmonella enterica NR-170 clinical isolates after 18 to 20 hrs in aerobic condition by CLSI-based broth microdilution assay; type: functional
[18] = tested on: Streptococcus pneumoniae; experiment: Ratio of MBC to MIC for […] Streptococcus pneumoniae ATCC 700677 clinical isolates; type: functional
[19] = Antibacterial activity against Enterobacter cloacae subsp. cloacae ATCC BAA-1143 clinical isolates after 18 to 20 hrs in aerobic condition by CLSI-based broth microdilution assay; type: functional
[20] = molecular target: T1, Ditrans,polycis-undecaprenyl-diphosphate synthase ((2E,6E)-farnesyl-diphosphate specific) (Escherichia coli (strain K12)) (UniProt P60472); experiment: Inhibition of Escherichia coli UPPS using FPP/IPP as substrate preincubated for 30 mins followed by substrates addition and measured after 30 mins by malachite green reagent based assay
T1 sequence (whole entry): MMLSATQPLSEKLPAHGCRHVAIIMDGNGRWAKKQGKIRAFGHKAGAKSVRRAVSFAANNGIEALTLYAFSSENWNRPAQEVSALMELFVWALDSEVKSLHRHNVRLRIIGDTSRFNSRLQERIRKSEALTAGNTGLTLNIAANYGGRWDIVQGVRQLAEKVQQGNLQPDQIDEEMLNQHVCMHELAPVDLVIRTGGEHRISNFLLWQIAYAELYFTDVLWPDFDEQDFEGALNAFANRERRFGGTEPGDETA

[21] = tested on: Staphylococcus aureus; experiment: Antibacterial activity against methicillin-resistant Staphylococcus aureus NRS384-USA300 clinical isolates after 18 to 20 hrs in aerobic condition by CLSI protocol based broth microdilution assay; type: functional
[22] = tested on: Enterococcus faecalis; experiment: Ratio of MBC to MIC for vancomycin-resistant Enterococcus faecalis ATCC 51299 clinical isolates; type: functional
[23] = tested on: Acinetobacter baumannii; experiment: Ratio of MBC to MIC for Acinetobacter baumannii NR 17786 clinical isolates; type: functional
[24] = tested on: Escherichia coli; experiment: Antibacterial activity against Escherichia coli BW25113 clinical isolates after 18 to 20 hrs in aerobic condition by CLSI-based broth microdilution assay; type: functional
[25] = tested on: Escherichia coli; experiment: Inhibition of 6His tagged Escherichia coli UPPP expressed in Escherichia coli C41(DE3) cells preincubated for 15 mins followed by FPP substrate addition and measured after 20 mins by malachite green reagent based assay
[26] = tested on: Listeria monocytogenes; experiment: Antibacterial activity against Listeria monocytogenes ATCC 19111 after 18 to 20 hrs in aerobic condition by CLSI-based broth microdilution assay; type: functional
[27] = tested on: Escherichia coli; experiment: Ratio of MBC to MIC for Escherichia coli ATCC 35150 clinical isolates; type: functional
[28] = tested on: Streptococcus pneumoniae; experiment: Antibacterial activity against cephalosporin-resistant Streptococcus pneumoniae ATCC 51916 clinical isolates after 18 to 20 hrs by CLSI-based broth microdilution assay; type: functional
[29] = tested on: Escherichia coli; experiment: Ratio of MBC to MIC for Escherichia coli ATCC 1411 clinical isolates; type: functional
[30] = tested on: Enterococcus faecalis; experiment: Antibacterial activity against vancomycin-resistant Enterococcus faecalis ATCC 51299 clinical isolates after 18 to 20 hrs in aerobic condition by CLSI-based broth microdilution assay; type: functional
[31] = tested on: Staphylococcus aureus; experiment: Antibiofilm activity against methicillin-resistant Staphylococcus aureus NRS384-USA300 clinical isolates assessed as inhibition of biofilm formation at 0.5 times MIC incubated for 24 hrs by crystal violet staining based spectrophotometric method relative to control; type: functional

Compound | Ratio [1] | Ratio [2] | Ratio [3] | MIC [4] [µg/mL] | Ratio [5] | MIC [6] [µg/mL] | MIC [7] [µg/mL] | MIC [8] [µg/mL] | Ratio [9] | MIC [10] [µg/mL] | MIC [11] [µg/mL] | MIC [12] [µg/mL] | MIC [13] [µg/mL] | MIC [14] [µg/mL] | Ratio [15] | MIC [17] [µg/mL] | Ratio [18] | MIC [19] [µg/mL] | MIC [21] [µg/mL] | Ratio [22] | also measured
CCCCCC#Cc1ccc(-n2ncc(/C(C)=N/NC(=N)N)c2C)cc1 | <3 | <3 | >=1 | 2 (≈ 5.71 µM) | >=1 | 2 (≈ 5.71 µM) | 16 (≈ 45.7 µM) | 8 (≈ 22.8 µM) | >=1 | 8 (≈ 22.8 µM) | 8 (≈ 22.8 µM) | 2 (≈ 5.71 µM) | 2 (≈ 5.71 µM) | 4 (≈ 11.4 µM) | <3 | 8 (≈ 22.8 µM) | <3 | 8 (≈ 22.8 µM) | 2 (≈ 5.71 µM) | <3 | MIC [16]: 8 µg/mL (≈ 22.8 µM); inhibition [20]: inactive; Ratio [23]: >=1; MIC [24]: 8 µg/mL (≈ 22.8 µM); inhibition [25]: inactive; MIC [26]: 2 µg/mL (≈ 5.71 µM); Ratio [27]: >=1; MIC [28]: 2 µg/mL (≈ 5.71 µM); Ratio [29]: >=1; MIC [30]: 2 µg/mL (≈ 5.71 µM)
C/C(=N\NC(=N)N)c1cnn(-c2ccc(C#CC3(O)CCCCC3)cc2)c1C | <3 | <3 | >=1 | 2 (≈ 5.28 µM) | >=1 | 2 (≈ 5.28 µM) | 32 (≈ 84.5 µM) | 8 (≈ 21.1 µM) | >=1 | 64 (≈ 169 µM) | 16 (≈ 42.3 µM) | 4 (≈ 10.6 µM) | 2 (≈ 5.28 µM) | 4 (≈ 10.6 µM) | <3 | 16 (≈ 42.3 µM) | <3 | 16 (≈ 42.3 µM) | 2 (≈ 5.28 µM) | <3 | MIC [16]: 32 µg/mL (≈ 84.5 µM); Ratio [23]: >=1; MIC [24]: 8 µg/mL (≈ 21.1 µM); MIC [26]: 2 µg/mL (≈ 5.28 µM); Ratio [27]: >=1; MIC [28]: 4 µg/mL (≈ 10.6 µM); Ratio [29]: >=1; MIC [30]: 2 µg/mL (≈ 5.28 µM)
C/C(=N\NC(=N)N)c1cnn(-c2ccc(C#Cc3ccccc3)cc2)c1C | <3 | <3 | >=1 | 1 (≈ 2.81 µM) | >=1 | 2 (≈ 5.61 µM) | 16 (≈ 44.9 µM) | 4 (≈ 11.2 µM) | >=1 | 8 (≈ 22.4 µM) | 8 (≈ 22.4 µM) | 2 (≈ 5.61 µM) | 1 (≈ 2.81 µM) | 4 (≈ 11.2 µM) | <3 | 8 (≈ 22.4 µM) | <3 | 8 (≈ 22.4 µM) | 1 (≈ 2.81 µM) | <3 | inhibition (INH) [31]: 50%; MIC [16]: 4 µg/mL (≈ 11.2 µM); inhibition [20]: inactive; Ratio [23]: >=1; MIC [24]: 8 µg/mL (≈ 22.4 µM); inhibition [25]: inactive; MIC [26]: 2 µg/mL (≈ 5.61 µM); Ratio [27]: >=1; MIC [28]: 1 µg/mL (≈ 2.81 µM); Ratio [29]: >=1; MIC [30]: 1 µg/mL (≈ 2.81 µM)
CCCC#Cc1ccc(-n2ncc(/C(C)=N/NC(=N)N)c2C)cc1 | <3 | <3 | >=1 | 2 (≈ 6.2 µM) | >=1 | 4 (≈ 12.4 µM) | 32 (≈ 99.3 µM) | 8 (≈ 24.8 µM) | >=1 | 16 (≈ 49.6 µM) | 8 (≈ 24.8 µM) | 4 (≈ 12.4 µM) | 2 (≈ 6.2 µM) | 8 (≈ 24.8 µM) | <3 | 16 (≈ 49.6 µM) | <3 | 16 (≈ 49.6 µM) | 4 (≈ 12.4 µM) | <3 | inhibition (INH) [31]: 74%; MIC [16]: 16 µg/mL (≈ 49.6 µM); inhibition [20]: inactive; Ratio [23]: >=1; MIC [24]: 8 µg/mL (≈ 24.8 µM); inhibition [25]: inactive; MIC [26]: 4 µg/mL (≈ 12.4 µM); Ratio [27]: >=1; MIC [28]: 4 µg/mL (≈ 12.4 µM); Ratio [29]: >=1; MIC [30]: 4 µg/mL (≈ 12.4 µM)
CCCCCC#Cc1ccc(-n2ncc(/C(C)=N/NC3=NCCN3)c2C)cc1 | <3 | <3 | >=1 | 2 (≈ 5.31 µM) | >=1 | 2 (≈ 5.31 µM) | > 128 | > 128 | >=1 | > 128 | > 128 | 2 (≈ 5.31 µM) | 2 (≈ 5.31 µM) | 8 (≈ 21.2 µM) | <3 | > 128 | <3 | > 128 | 2 (≈ 5.31 µM) | <3 | inhibition [20]: inactive; Ratio [23]: >=1; MIC [24]: > 128 µg/mL; inhibition [25]: inactive; MIC [26]: 2 µg/mL (≈ 5.31 µM); Ratio [27]: >=1; MIC [28]: 4 µg/mL (≈ 10.6 µM); Ratio [29]: >=1; MIC [30]: 4 µg/mL (≈ 10.6 µM)
